Source: PubChem BioAssay AID504827 (Southern Research Specialized Biocontainment Screening …, 2011)
Active and inactive are the calls of the source. The rule behind the calls is not given here.

Assays:
[1] = tested on: RSV-infected cells, CPE inhibition; test: inhibitors of RSV-induced cell death – synthesized compounds, set 10, dose response (AID 504827)
[2] = as above; settings: RSV-infected cells, CPE inhibition; at 200 µM (top of the series)

SMILES | IC50 [1] [µM] | CPE inhibition [2]
Cc1ccc(NC(=O)[C@@H]2CCCN2S(=O)(=O)c2cccc3cccnc23)c(C)c1 | 2.1 | –
COc1ccc(C)c(NC(=O)[C@@H]2CCCN2S(=O)(=O)c2cccc3cccnc23)c1 | 4.6 | –
Cc1ccc(Cn2c(=O)n(Cc3ccc(C(=O)Nc4ccncc4)cc3)c(=O)c3ccccc32)cc1 | 9.9 | –
Cc1cc(NC(=O)[C@@H]2CCCN2S(=O)(=O)c2cccc3cccnc23)n(C(C)(C)C)n1 | – | 4.92% (inactive)
